{"source": "paper PMC5438822", "about": "“Pharmacokinetics and safety of carfilzomib in patients with relapsed multiple myeloma and end-stage renal disease (ESRD): an open-label, single-arm, phase I study” (Cancer Chemotherapy and Pharmacology, 2017)", "key": {"[1]": {"assay": "Plasma pharmacokinetics of carfilzomib and its major metabolites after 30-min IV infusion, normal renal function vs ESRD", "type": "in vivo, human", "conditions": "for AUC0−inf Geo mean ratio (90% CI), ESRD vs normal renal function / AUC0−last Geo mean ratio (90% CI), ESRD vs normal renal function: ANOVA of ln-transformed data, ESRD test, normal reference", "experimental": "(§1) This was a phase I, multicenter (13 sites in US, Canada, and Australia), open-label, nonrandomized, comparative PK study of carfilzomib in patients with multiple myeloma and normal renal function or ESRD on hemodialysis (NCT01949532). The primary objective was to assess the influence of ESRD on AUC, from time 0 to the last concentration measured (AUC0−last) and from time 0 extrapolated to infinity (AUC0−inf) of carfilzomib 56 mg/m^2 at cycle 2 day 1 in patients with relapsed multiple myeloma. Secondary objectives were to compare between patient cohorts additional PK parameters of carfilzomib at cycle 2 day 1, including C max, time to maximum concentration (t max), clearance, terminal half-life (t 1/2), volume of distribution at steady state, and mean residence time; compare between patient cohorts PK parameters of carfilzomib 27 mg/m^2 at cycle 1 day 16; evaluate PK parameters for carfilzomib’s major metabolites (PR-389/M14, PR-413/M15, and PR-519/M16) to help characterize metabolism and elimination profile of carfilzomib; and evaluate the safety and tolerability of carfilzomib. Exploratory objectives included evaluation of ORR (defined as PR or better) and clinical benefit rate [CBR; defined as ORR + minimal response (MR)], and estimation of duration of response (DOR) and PFS.\n(§2) Patients received IV carfilzomib (as a 30-min infusion) in 28-day cycles (Fig. 1). All received carfilzomib 20 mg/m^2 on days 1 and 2 of cycle 1 and escalated to 27 mg/m^2 on day 8, 9, 15, and 16 of cycle 1. If tolerated, carfilzomib dose was increased to 56 mg/m^2 starting on day 1 of cycle 2 and continued on the same schedule (day 1, 2, 8, 9, 15, and 16 of each cycle). Oral or IV dexamethasone 8 mg/day was given on the same days as carfilzomib during cycles 1 and 2 but was optional in cycles 3 and beyond. IV hydration was given immediately prior to and following carfilzomib dosing during cycle 1 and at the investigator’s discretion in cycle 2 and higher; hydration consisted of 250 to 500 mL IV normal saline or other appropriate IV fluid.\n(§3) Blood samples were collected for PK assessments for carfilzomib and its major metabolites (metabolites PR-389/M14, PR-413/M15, and PR-519/M16) (Fig. 1). Samples were collected at the following timepoints on cycle 1 day 16 (27 mg/m^2 dose) and cycle 2 day 1 (56 mg/m^2 dose) or on subsequent infusion days when the intended dose levels were administered: before infusion; 15 min after start of infusion; within 2 min before the end of infusion; and at 5, 15, and 30 min (±2 min for all timepoints ≤30 min), and 1, 2, and 4 h (±5 min for all timepoints >30 min) after the end of the infusion. Safety was assessed throughout the study and included the monitoring of AEs, clinical laboratory evaluations, electrocardiograms, and vital signs. Each evaluable patient’s response to treatment or progression over the course of the study was evaluated by the investigator according to the International Myeloma Working Group, International Uniform Response Criteria for Multiple Myeloma and European Group for Blood and Marrow Transplantation at day 1 of each cycle.\nDescriptive statistics were provided for selected demographics, safety, and PK data, with all statistical summaries and analyses performed in SAS^Ⓡ version 9.1 or higher (SAS Institute Inc., Cary, NC). The primary PK analyses and other PK parameters were performed using the PK-evaluable population. Plasma PK parameters of carfilzomib and metabolites were computed in Phoenix WinNonlin^Ⓡ Enterprise version 5.2 or higher. To assess the effect of ESRD relative to normal renal function on PK parameters (AUC0−last and AUC0−inf), an analysis of variance (ANOVA) of the ln-transformed plasma PK parameters was performed, with renal impairment as a fixed effect. […]"}, "[2]": {"system": "patients with relapsed multiple myeloma", "assay": "Best overall response as determined by investigator (IMWG / EBMT criteria), DOR and PFS", "type": "in vivo, human", "conditions": "for Best overall response: Minimal response / Best overall response: Complete response / Best overall response: Not evaluable / Best overall response: Partial response / Best overall response: Progressive disease / Best overall response: Stable disease / Best overall response: Stringent complete response / Best overall response: Very good partial response / Clinical benefit rate (95% CI), minimal response or better / Overall response rate (95% CI), partial response or better: response-evaluable, carfilzomib 20/27/56 mg/m^2 IV; for Best overall response: Minimal response: EBMT criteria", "experimental": "as §1, §2, §3\n(§4) Safety was assessed for patients who received ≥1 dose of carfilzomib. AEs were graded using the National Cancer Institute Common Terminology Criteria for Adverse Events version 4.03 and mapped to preferred term and system organ class using the Medical Dictionary for Regulatory Activities (MedDRA). ORR defined as the proportion of patients for whom the best overall response was stringent complete response, complete response, very good PR, or PR, along with the associated 95% exact binomial CI (Clopper–Pearson method) was determined. CBR, defined as the proportion of patients with the best overall response of MR or better, was likewise determined along with the 95% exact binomial CI."}, "[3]": {"system": "patients with relapsed multiple myeloma", "assay": "Safety: adverse events (NCI CTCAE v4.03), discontinuations, deaths", "type": "in vivo, human", "conditions": "for treatment discontinuation due to disease progression: as of data cutoff", "experimental": "as §2, §3, §4"}, "[4]": {"conditions": "cited from earlier work", "from_the_text": "Carfilzomib, an epoxyketone proteasome inhibitor, is approved in the United States (US), Canada, Australia, European Union (EU), and other jurisdictions for the treatment of relapsed or refractory multiple myeloma. […] Following intravenous (IV) administration, carfilzomib is rapidly and extensively metabolized in patients with multiple myeloma or solid tumors. Similar to the metabolic profile in rats and monkeys, ..."}, "[5]": {"system": "relapsed multiple myeloma", "conditions": "carfilzomib 56 mg/m^2 infused for 30 min with or without dexamethasone, cited from earlier work", "experimental": "The 50% ORR in the overall population was similar to those previously reported in trials of carfilzomib 56 mg/m^2 infused for 30 min with or without dexamethasone for relapsed multiple myeloma (50% in a phase I trial and 55% in a phase II trial). Together, the results of this study support current recommendations for carfilzomib that no starting dose adjustment is warranted for patients with baseline renal impairment including those with ESRD [8, 20]."}, "[6]": {"conditions": "total efficacy-evaluable population"}}, "note": "Where two headings read alike, the source gives them in different places.", "data": [{"smiles": "CC(C)C[C@H](NC(=O)[C@H](CCc1ccccc1)NC(=O)CN1CCOCC1)C(=O)N[C@@H](Cc1ccccc1)C(=O)N[C@@H](CC(C)C)C(=O)[C@@]1(C)CO1", "note": "[carfilzomib]", "values": [{"measurement": "AUC0−inf Geo mean ratio (90% CI), ESRD vs normal renal function", "setting": "[1]; 27 mg/m^2", "value": "138.09 (102.77–185.54) %"}, {"measurement": "AUC0−last Geo mean ratio (90% CI), ESRD vs normal renal function", "setting": "[1]; 27 mg/m^2", "value": "139.72 (112.41–173.66) %"}, {"measurement": "AUC0−inf Geo mean ratio (90% CI), ESRD vs normal renal function", "setting": "[1]; 56 mg/m^2, cycle 2 day 1", "value": "133.62 (70.93–251.73) %"}, {"measurement": "AUC0−last Geo mean ratio (90% CI), ESRD vs normal renal function", "setting": "[1]; 56 mg/m^2, cycle 2 day 1", "value": "132.75 (70.60–249.63) %"}, {"measurement": "change in mean AUC0−last and C max between 27 and 56 mg/m^2", "setting": "[1]; in vivo", "value": "dose-dependent increase"}, {"measurement": "concentration decline in the first 15 min following the end of the infusion", "setting": "[1]; in vivo", "value": "two orders of magnitude"}, {"measurement": "mean terminal t 1/2", "setting": "[1]; in vivo", "value": "24 to 72", "unit": "min"}, {"measurement": "time of peak concentrations after start of infusion", "setting": "[1]; in vivo, iv", "value": "approximately 0.5 h"}, {"measurement": "patients with a PFS of ≥6 months", "setting": "[2]; ESRD", "value": "4 of 10"}, {"measurement": "Best overall response: Minimal response", "setting": "[2]; ESRD, n = 10", "value": "0 (0.0) n (%)"}, {"measurement": "Best overall response: Complete response", "setting": "[2]; ESRD, n = 10", "value": "0 (0.0) n (%)"}, {"measurement": "Best overall response: Not evaluable", "setting": "[2]; ESRD, n = 10", "value": "0 (0.0) n (%)"}, {"measurement": "Best overall response: Partial response", "setting": "[2]; ESRD, n = 10", "value": "5 (50.0) n (%)"}, {"measurement": "Best overall response: Progressive disease", "setting": "[2]; ESRD, n = 10", "value": "2 (20.0) n (%)"}, {"measurement": "Best overall response: Stable disease", "setting": "[2]; ESRD, n = 10", "value": "2 (20.0) n (%)"}, {"measurement": "Best overall response: Stringent complete response", "setting": "[2]; ESRD, n = 10", "value": "0 (0.0) n (%)"}, {"measurement": "Best overall response: Very good partial response", "setting": "[2]; ESRD, n = 10", "value": "1 (10.0) n (%)"}, {"measurement": "Clinical benefit rate (95% CI), minimal response or better", "setting": "[2]; ESRD, n = 10", "value": "60.0 (26.2–87.8) %"}, {"measurement": "Overall response rate (95% CI), partial response or better", "setting": "[2]; ESRD, n = 10", "value": "60.0 (26.2–87.8) %"}, {"measurement": "patients with a PFS of ≥6 months", "setting": "[2]; normal renal function", "value": "6 of 14"}, {"measurement": "Best overall response: Minimal response", "setting": "[2]; normal renal function, n = 14", "value": "1 (7.1) n (%)"}, {"measurement": "Best overall response: Complete response", "setting": "[2]; normal renal function, n = 14", "value": "0 (0.0) n (%)"}, {"measurement": "Best overall response: Partial response", "setting": "[2]; normal renal function, n = 14", "value": "3 (21.4) n (%)"}, {"measurement": "Best overall response: Progressive disease", "setting": "[2]; normal renal function, n = 14", "value": "2 (14.3) n (%)"}, {"measurement": "Best overall response: Stable disease", "setting": "[2]; normal renal function, n = 14", "value": "3 (21.4) n (%)"}, {"measurement": "Best overall response: Stringent complete response", "setting": "[2]; normal renal function, n = 14", "value": "0 (0.0) n (%)"}, {"measurement": "Best overall response: Very good partial response", "setting": "[2]; normal renal function, n = 14", "value": "3 (21.4) n (%)"}, {"measurement": "Clinical benefit rate (95% CI), minimal response or better", "setting": "[2]; normal renal function, n = 14", "value": "50.0 (23.0–77.0) %"}, {"measurement": "Overall response rate (95% CI), partial response or better", "setting": "[2]; normal renal function, n = 14", "value": "42.9 (17.7–71.1) %"}, {"measurement": "patients with a PFS >12 months", "setting": "[2]; [6]", "value": 4, "unit": "patients"}, {"measurement": "patients with a PFS of ≥6 months", "setting": "[2]; [6]", "value": "Ten"}, {"measurement": "Best overall response: Minimal response", "setting": "[2]; total, n = 24", "value": "1 (4.2) n (%)"}, {"measurement": "Best overall response: Complete response", "setting": "[2]; total, n = 24", "value": "0 (0.0) n (%)"}, {"measurement": "Best overall response: Not evaluable", "setting": "[2]; total, n = 24", "value": "2 (8.3) n (%)"}, {"measurement": "Best overall response: Partial response", "setting": "[2]; total, n = 24", "value": "8 (33.3) n (%)"}, {"measurement": "Best overall response: Progressive disease", "setting": "[2]; total, n = 24", "value": "4 (16.7) n (%)"}, {"measurement": "Best overall response: Stable disease", "setting": "[2]; total, n = 24", "value": "5 (20.8) n (%)"}, {"measurement": "Best overall response: Stringent complete response", "setting": "[2]; total, n = 24", "value": "0 (0.0) n (%)"}, {"measurement": "Best overall response: Very good partial response", "setting": "[2]; total, n = 24", "value": "4 (16.7) n (%)"}, {"measurement": "Clinical benefit rate (95% CI), minimal response or better", "setting": "[2]; total, n = 24", "value": "54.2 (32.8–74.4) %"}, {"measurement": "Overall response rate (95% CI), partial response or better", "setting": "[2]; total, n = 24", "value": "50.0 (29.1–70.9) %"}, {"measurement": "treatment discontinuation due to disease progression", "setting": "[3]; ESRD", "value": 36, "unit": "%"}, {"measurement": "patients with treatment-related AEs that led to study discontinuation", "setting": "[3]; in vivo", "value": "Four"}, {"measurement": "treatment discontinuation due to disease progression", "setting": "[3]; normal renal function", "value": 20, "unit": "%"}, {"measurement": "patients who died during the study", "setting": "[3]; total, none considered related to carfilzomib treatment", "value": "Five"}, {"measurement": "half-life", "setting": "[4]; IV administration at doses from 15 to 56 mg/m^2, patients", "value": "≤ 60", "unit": "min"}, {"measurement": "dose excreted via urinary metabolites", "setting": "[4]; within 24 h", "value": "approximately 25%"}, {"measurement": "urinary and fecal excretion of the parent compound", "setting": "[4]; within 24 h", "value": "0.3 % of the total dose"}, {"measurement": "ORR", "setting": "[5]; phase I trial", "value": 50, "unit": "%"}, {"measurement": "ORR", "setting": "[5]; phase II trial", "value": 55, "unit": "%"}]}]}
